The target in this assay is T1, Human M4 (Homo sapiens, UniProt P08173).
T1 construct: Human or rat M4 cDNA, along with the chimeric G protein Gqi5, were transfected into Chinese hamster ovary (CHO-K1) cells; expressed in transfected cells; host or cells: CHO-K1 (Chinese hamster ovary, ATCC), stably co-expressing Gqi5
T1 sequence (P08173 1-479): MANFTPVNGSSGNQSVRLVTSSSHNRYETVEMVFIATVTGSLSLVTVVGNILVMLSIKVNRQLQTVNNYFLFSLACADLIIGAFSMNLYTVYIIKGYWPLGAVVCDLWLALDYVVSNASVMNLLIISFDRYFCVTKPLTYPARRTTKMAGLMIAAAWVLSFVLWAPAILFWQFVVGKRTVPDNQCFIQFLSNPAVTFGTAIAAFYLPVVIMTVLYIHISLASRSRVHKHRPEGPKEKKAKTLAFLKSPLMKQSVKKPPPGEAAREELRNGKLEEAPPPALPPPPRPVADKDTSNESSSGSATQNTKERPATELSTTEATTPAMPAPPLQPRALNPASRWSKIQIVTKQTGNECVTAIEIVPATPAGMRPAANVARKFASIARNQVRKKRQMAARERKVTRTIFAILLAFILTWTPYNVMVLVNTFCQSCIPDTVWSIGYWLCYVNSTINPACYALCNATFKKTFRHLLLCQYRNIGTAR
Put plainly: mAChR M4 cell-based functional assay (calcium flux, decrease of EC80 acetylcholine response). Particulars: for remaining activity at 30 µM / Human M4 Emin: % ACh maximum at 30 μM; for remaining activity at 30 µM: read-out: Human M4 Emin; for pIC50: M4/Gqi5/CHO-K1 cells, decrease of response to EC80 acetylcholine. In short, it runs like this:
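CHO-K1 cells stably co-expressing M4 and chimeric Gqi5, loaded with Fluo-4 AM; calcium flux read on FDSS. Compound added at 2 s, EC20 acetylcholine at 143 s, EC80 acetylcholine at 268 s. IC50 from concentration-dependent decrease of the EC80 response, four-parameter logistic fit; 10-point 1:3 titrations.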

pIC50: −log10 of the molar value.

As for `Cc1cc(F)c(F)c(-c2cc(C(F)(F)F)c(N[C@H]3C[C@@H]4CN(CC5CCOCC5)C[C@@H]4C3)nn2)c1` [Example 93, (3aR,5s,6aS)-N-(6-(2,3-difluoro-5-methylphenyl)-4-(trifluoromethyl)pyridazin-3-yl)-2-((tetrahydro-2H-pyran-4-yl)methyl)octahydro-cyclopenta[c]pyrrol-5-amine], the remaining activity at 30 µM was 3% and the pIC50 (as a rule, the negative decadic logarithm of the IC50, by convention in mol/L) is 6.76.
For `Cn1cc2cc(-c3cc(C(F)(F)F)c(N[C@H]4C[C@@H]5CN(CC6CCCOC6)C[C@@H]5C4)nn3)ccc2n1` (single isomer, unassigned) [Example 37], the “Human M4 Emin” value came to 5% and the pIC50 was 7.12.
As for `Cn1cnc2ccc(-c3cc(C(F)(F)F)c(N[C@H]4C[C@@H]5CN(Cc6ccccn6)C[C@@H]5C4)nn3)cc21` [Example 117, (3aR,5s,6aS)-N-(6-(1-methyl-1H-benzo[d]imidazol-6-yl)-4-(trifluoromethyl)pyridazin-3-yl)-2-(pyridin-2-ylmethyl)octahydro-cyclopenta[c]pyrrol-5-amine], the remaining activity at 30 µM is 4% and the pIC50 is 6.46.
Consider `Cc1cc(C)cc(-c2cc(C(F)(F)F)c(N[C@H]3C[C@@H]4CN(Cc5ccccn5)C[C@@H]4C3)nn2)c1` [Example 104, (3aR,5s,6aS)-N-(6-(3,5-dimethylphenyl)-4-(trifluoromethyl)pyridazin-3-yl)-2-(pyridin-2-ylmethyl)octahydro-cyclopenta[c]pyrrol-5-amine], for which the remaining activity at 30 µM was found to be 3% and the negative-log IC50 (pIC50) was 6.48.
As to `Cc1ccc(F)cc1-c1cc(C#N)c(N[C@H]2C[C@@H]3CN(C[C@@H]4CCOC4)C[C@@H]3C2)nn1` [Example 151, 6-(5-fluoro-2-methylphenyl)-3-(((3aR,5s,6aS)-2-(((S)-tetrahydrofuran-3-yl)methyl)octahydro-cyclopenta[c]pyrrol-5-yl)amino)pyridazine-4-carbonitrile], the remaining activity at 30 µM came to 7% and the negative logarithm of the IC50 (pIC50) was 6.98.
The corresponding values for `Fc1cccc(-c2cc(C(F)(F)F)c(N[C@H]3C[C@@H]4CN(Cc5ccccn5)C[C@@H]4C3)nn2)c1` [Example 105, (3aR,5s,6aS)-N-(6-(3-fluorophenyl)-4-(trifluoro-methyl)pyridazin-3-yl)-2-(pyridin-2-ylmethyl)octahydro-cyclopenta[c]pyrrol-5-amine] are 2% and 6.33.
As to `N#Cc1cccc(-c2cc(C(F)(F)F)c(N[C@H]3C[C@@H]4CN(CC5CCOCC5)C[C@@H]4C3)nn2)c1F` [Example 60, 2-fluoro-3-(6-(((3aR,5s,6aS)-2-((tetrahydro-2H-pyran-4-yl)methyl)octahydro-cyclopenta[c]pyrrol-5-yl)amino)-5-(trifluoro-methyl)pyridazin-3-yl)benzonitrile], the remaining activity at 30 µM is 4% and the pIC50 was 6.63.
As to `Cc1ccc(F)cc1-c1cc(C(F)(F)F)c(N[C@H]2C[C@@H]3CN(CC4CCCCO4)C[C@@H]3C2)nn1` (single isomer, unassigned) [Example 119], the “Human M4 Emin” value came to 3% and the pIC50 was 7.85.
In the case of `FC(F)(F)c1cc(-c2ccc3c(c2)CCO3)nnc1N[C@H]1C[C@@H]2CN(CC3CCOCC3)C[C@@H]2C1` [Example 88, (3aR,5s,6aS)-N-(6-(2,3-dihydrobenzofuran-5-yl)-4-(trifluoromethyl)pyridazin-3-yl)-2-((tetrahydro-2H-pyran-4-yl)methyl)octahydro-cyclopenta[c]pyrrol-5-amine], the remaining activity at 30 µM stood at 3% and the pIC50 is 7.32.
The like results for `FC(F)(F)c1cc(-c2ccc3ncsc3c2)nnc1N[C@H]1C[C@@H]2CN(CC3CCOCC3)C[C@@H]2C1` [Example 112, (3aR,5s,6aS)-N-(6-(benzo[d]thiazol-6-yl)-4-(trifluoromethyl)pyridazin-3-yl)-2-((tetrahydro-2H-pyran-4-yl)methyl)octahydro-cyclopenta[c]pyrrol-5-amine] were, in that order, 3% and 8.05.
The like results for `Cn1cc2cc(-c3cc(C#N)c(N[C@H]4C[C@@H]5CN(C[C@@H]6CCOC6)C[C@@H]5C4)nn3)ccc2n1` [Example 154, 6-(2-methyl-2H-indazol-5-yl)-3-(((3aR,5s,6aS)-2-(((S)-tetrahydrofuran-3-yl)methyl)octahydro-cyclopenta[c]pyrrol-5-yl)amino)pyridazine-4-carbonitrile] were, in that order, 15% and 7.06.
Take `Cc1cnc(F)cc1-c1cc(C(F)(F)F)c(N[C@H]2C[C@@H]3CN(CC4CCOCC4)C[C@@H]3C2)nn1` [Example 113, (3aR,5s,6aS)-N-(6-(2-fluoro-5-methylpyridin-4-yl)-4-(trifluoromethyl)pyridazin-3-yl)-2-((tetrahydro-2H-pyran-4-yl)methyl)octahydro-cyclopenta[c]pyrrol-5-amine]: the remaining activity at 30 µM is 3% and the pIC50 is 8.21.
`Cc1ccc(F)cc1-c1cc(C#N)c(N[C@H]2C[C@@H]3CN(CC4CCOCC4)C[C@@H]3C2)nn1` [Example 146, 6-(5-fluoro-2-methylphenyl)-3-(((3aR,5s,6aS)-2-((tetrahydro-2H-pyran-4-yl)methyl)octahydro-cyclopenta[c]pyrrol-5-yl)amino)pyridazine-4-carbonitrile]: the remaining activity at 30 µM stood at 6% and the negative logarithm of the IC50 (pIC50) was 7.81.
The corresponding values for `CCOc1ccc(-c2cc(C(F)(F)F)c(N[C@H]3C[C@@H]4CN(CC5CCOCC5)C[C@@H]4C3)nn2)c(F)c1F` [Example 56, (3aR,5s,6aS)-N-(6-(4-ethoxy-2,3-difluorophenyl)-4-(trifluoro-methyl)pyridazin-3-yl)-2-((tetrahydro-2H-pyran-4-yl)methyl)octahydro-cyclopenta[c]pyrrol-5-amine] are 3% and 6.63.
As for `Cc1ccc(C)c(-c2cc(C(F)(F)F)c(N[C@H]3C[C@@H]4CN(C[C@H]5COCCO5)C[C@@H]4C3)nn2)c1` [Example 72, (3aR,5s,6aS)-2-(((S)-1,4-dioxan-2-yl)methyl)-N-(6-(2,5-dimethylphenyl)-4-(trifluoromethyl)pyridazin-3-yl)octahydro-cyclopenta[c]pyrrol-5-amine], the remaining activity at 30 µM came out at 3% and the pIC50 was 7.28.
For the molecule `F[C@H]1CCN(c2cc(C(F)(F)F)c(N[C@H]3C[C@@H]4CN(CC5CCOCC5)C[C@@H]4C3)nn2)C1` [Example 139, (3aR,5s,6aS)-N-(6-((S)-3-fluoropyrrolidin-1-yl)-4-(trifluoromethyl)pyridazin-3-yl)-2-((tetrahydro-2H-pyran-4-yl)methyl)octahydro-cyclopenta[c]pyrrol-5-amine], the remaining activity at 30 µM was found to be 2% and the pIC50 was 8.14.
With `[2H]C([2H])(C1CCOCC1)N1C[C@H]2C[C@H](Nc3nnc(-c4ccccc4)cc3C(F)(F)F)C[C@H]2C1` [Example 108, (3aR,5s,6aS)-N-(6-phenyl-4-(trifluoromethyl)pyridazin-3-yl)-2-((tetrahydro-2H-pyran-4-yl)methyl-d2)octahydro-cyclopenta[c]pyrrol-5-amine], the remaining activity at 30 µM came to 3% and the pIC50 was 7.39.
Regarding `Cc1ccc(F)cc1-c1cc(C(F)(F)F)c(N[C@H]2C[C@@H]3CN(C[C@H]4COCCO4)C[C@@H]3C2)nn1` [Example 22, (3aR,5s,6aS)-2-(((S)-1,4-dioxan-2-yl)methyl)-N-(6-(5-fluoro-2-methylphenyl)-4-(trifluoromethyl)pyridazin-3-yl)octahydro-cyclopenta[c]pyrrol-5-amine], the remaining activity at 30 µM was 3% and the pIC50 was 8.57.
As for `FC(F)(F)Oc1ccccc1-c1cc(C(F)(F)F)c(N[C@H]2C[C@@H]3CN(CC4CCOCC4)C[C@@H]3C2)nn1` [Example 58, (3aR,5s,6aS)-2-((tetrahydro-2H-pyran-4-yl)methyl)-N-(6-(2-(trifluoro-methoxy)phenyl)-4-(trifluoromethyl)pyridazin-3-yl)octahydro-cyclopenta[c]pyrrol-5-amine], the remaining activity at 30 µM came to 3% and the negative logarithm of the IC50 (pIC50) is 6.60.
Turning to `Cn1cc2cc(-c3cc(C#N)c(N[C@H]4C[C@@H]5CN(C[C@H]6CCOC6)C[C@@H]5C4)nn3)ccc2n1` [Example 155, 6-(2-methyl-2H-indazol-5-yl)-3-(((3aR,5s,6aS)-2-(((R)-tetrahydrofuran-3-yl)methyl)octahydro-cyclopenta[c]pyrrol-5-yl)amino)pyridazine-4-carbonitrile], the remaining activity at 30 µM turned out to be 5% and the negative-log IC50 (pIC50) is 6.99.

These data come from patent US20230183219A1, “CONDENSED SUBSTITUTED HYDROPYRROLES AS ANTAGONISTS OF THE MUSCARINIC ACETYLCHOLINE RECEPTOR M4” (Vanderbilt University, priority 2020, published 2023).
